What was measured:
[1] = target: T1, SMARCA2 (Homo sapiens, UniProt P51531); assay: MSD SMARCA2 degradation in A549 cell line; format: cell-based; conditions: 24 h; for Dmax: A549, A549 cells; for DC50: A549 cells, read-out: SMARCA2 MSD A549 degradation 24 h: Average external-Abs DC50
How it was run: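 SMARCA2 remaining was measured by MSD electrochemiluminescence on RIPA lysates (anti-SMARCA2 plus SULFO-TAG anti-rabbit). Prior exposure: 24 h of A549 cells to a 10-point, 3-fold dilution series topping at 1000 nM final; Dmax % given as graded codes.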

[2] = target: T1, SMARCA2; assay: MSD SMARCA2 degradation in NCI-H1299 cell line (24 h); format: cell-based; design: HC: NCI-H1299 cells treated with DMSO; host or cells: NCI-H1299; conditions: for Dmax: NCI-H1299, NCI-H1299 cells; for DC50: read-out: SMARCA2 MSD H1299 degradation 24 h: External Abs-DC50
How it was run: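 SMARCA2 measured by MSD electrochemiluminescence (primary 0.3 ug/ml, secondary 1 ug/ml) on lysates from NCI-H1299 cells exposed to compounds for 24 h across nine 3-fold dilutions. Signal scaled from A2780 cells (no SMARCA2) to DMSO-treated H1299 controls, and maximal degradation after 24 h reported in letter categories.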

T1 sequence (P51531 whole entry): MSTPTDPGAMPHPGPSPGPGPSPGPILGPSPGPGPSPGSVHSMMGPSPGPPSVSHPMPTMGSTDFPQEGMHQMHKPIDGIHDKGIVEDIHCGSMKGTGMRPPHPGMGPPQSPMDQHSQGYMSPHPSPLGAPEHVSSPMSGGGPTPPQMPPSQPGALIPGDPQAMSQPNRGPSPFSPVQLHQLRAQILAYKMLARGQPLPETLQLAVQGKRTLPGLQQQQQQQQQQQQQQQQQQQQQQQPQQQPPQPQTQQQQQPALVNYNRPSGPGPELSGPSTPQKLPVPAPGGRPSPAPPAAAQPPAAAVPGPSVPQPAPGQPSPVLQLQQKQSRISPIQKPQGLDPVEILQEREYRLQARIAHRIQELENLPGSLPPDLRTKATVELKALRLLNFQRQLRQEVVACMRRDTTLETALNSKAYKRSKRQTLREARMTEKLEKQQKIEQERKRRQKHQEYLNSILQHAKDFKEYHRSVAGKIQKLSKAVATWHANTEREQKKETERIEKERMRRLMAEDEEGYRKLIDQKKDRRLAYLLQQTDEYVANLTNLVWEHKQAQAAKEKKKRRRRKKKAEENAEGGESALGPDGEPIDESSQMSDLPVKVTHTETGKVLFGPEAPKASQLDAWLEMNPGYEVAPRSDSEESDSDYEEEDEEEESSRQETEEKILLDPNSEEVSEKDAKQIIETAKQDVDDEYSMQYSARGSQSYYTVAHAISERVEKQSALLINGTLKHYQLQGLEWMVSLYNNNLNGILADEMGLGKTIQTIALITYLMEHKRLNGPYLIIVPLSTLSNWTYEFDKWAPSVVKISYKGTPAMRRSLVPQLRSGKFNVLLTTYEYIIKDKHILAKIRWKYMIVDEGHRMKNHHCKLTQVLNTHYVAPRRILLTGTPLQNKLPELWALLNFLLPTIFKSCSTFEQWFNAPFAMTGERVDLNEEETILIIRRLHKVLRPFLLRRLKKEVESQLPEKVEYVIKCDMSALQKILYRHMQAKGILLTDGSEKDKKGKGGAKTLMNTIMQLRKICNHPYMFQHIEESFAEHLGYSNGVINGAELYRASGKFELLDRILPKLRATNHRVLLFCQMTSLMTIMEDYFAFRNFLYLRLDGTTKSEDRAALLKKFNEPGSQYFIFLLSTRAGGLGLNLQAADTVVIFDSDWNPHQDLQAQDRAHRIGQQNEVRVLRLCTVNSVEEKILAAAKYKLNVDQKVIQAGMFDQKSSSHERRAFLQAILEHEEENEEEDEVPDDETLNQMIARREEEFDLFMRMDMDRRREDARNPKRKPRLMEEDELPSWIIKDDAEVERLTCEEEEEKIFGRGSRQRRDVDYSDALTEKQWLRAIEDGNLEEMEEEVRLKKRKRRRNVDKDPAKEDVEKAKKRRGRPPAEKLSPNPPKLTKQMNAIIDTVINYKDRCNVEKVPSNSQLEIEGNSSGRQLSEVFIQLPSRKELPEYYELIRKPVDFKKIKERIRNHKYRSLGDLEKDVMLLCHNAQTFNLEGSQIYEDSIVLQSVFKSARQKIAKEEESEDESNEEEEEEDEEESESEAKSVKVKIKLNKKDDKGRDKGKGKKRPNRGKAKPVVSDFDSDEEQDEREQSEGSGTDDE

SMILES | Dmax [1] | DC50 [1] | Dmax [2] | DC50 ([2]; NCI-H1299 cells) | SMARCA2 MSD H1299 degradation 24 h: Dmax % ([2]; NCI-H1299 cells)
Cn1c(=O)n(C2CCC(=O)NC2=O)c2ccc(CCCCCCCc3nccc(N4C5CCC4CN(c4cc(-c6ccccc6O)nnc4N)C5)n3)cc21 (centres unmarked) [I-287, 3-(5-(7-(4-(3-(3-amino-6-(2-hydroxyphenyl)pyridazin-4-yl)-3,8-diazabicyclo[3.2.1]octan-8-yl)pyrimidin-2-yl)heptyl)-3-methyl-2-oxo-2,3-dihydro-1H-benzo[d]imidazol-1-yl)piperidine-2,6-dione] | 70 to 90% | 100 to 500 nM | > 90% | 100 to 500 nM | –
Cc1ncsc1-c1ccc(CNC(=O)[C@@H]2C[C@@H](O)CN2C(=O)[C@@H](NC(=O)[C@H]2CC[C@@H](c3cnc(N4C5CCC4CN(c4cc(-c6ccccc6O)nnc4N)C5)nc3)CC2)C(C)(C)C)cc1 [I-336] | > 90% | 100 to 500 nM | – | < 100 nM | –
Cc1ncsc1-c1ccc(CNC(=O)[C@@H]2C[C@@H](O)CN2C(=O)[C@@H](NC(=O)[C@H]2CC[C@H](c3cnc(N4C5CCC4CN(c4cc(-c6ccccc6O)nnc4N)C5)nc3)CC2)C(C)(C)C)cc1 [I-337, (2S,4R)-1-((2S)-2-((1r,4S)-4-(2-(3-(3-amino-6-(2-hydroxyphenyl)pyridazin-4-yl)-3,8-diazabicyclo[3.2.1]octan-8-yl)pyrimidin-5-yl)cyclohexanecarboxamido)-3,3-dimethylbutanoyl)-4-hydroxy-N-(4-(4-methylthiazol-5-yl)benzyl)pyrrolidine-2-carboxamide] | > 90% | < 100 nM | > 90% | < 100 nM | –
Cc1ncsc1-c1ccc(CNC(=O)[C@@H]2C[C@@H](O)CN2C(=O)[C@@H](NC(=O)[C@H]2CC3(C2)C[C@H](N2CCC(n4cc(-c5cc(-c6ccccc6O)nnc5N)cn4)CC2)C3)C(C)(C)C)cc1 (some centres unmarked) [I-389] | > 90% | 100 to 500 nM | – | 100 to 500 nM | A (A (>90% degradation))
Cc1ncsc1-c1ccc(CNC(=O)[C@@H]2C[C@@H](O)CN2C(=O)[C@@H](NC(=O)[C@H]2CC[C@@H](CN3CCC(n4cc(-c5cc(-c6ccccc6O)nnc5N)cn4)CC3)CC2)C(C)(C)C)cc1 [I-402] | 70 to 90% | 100 to 500 nM | 70 to 90% | 100 to 500 nM | –
Cc1ncsc1-c1ccc(CNC(=O)[C@@H]2C[C@@H](O)CN2C(=O)[C@@H](NC(=O)[C@H]2CC[C@H](CN3CCC(n4cc(-c5cc(-c6ccccc6O)nnc5N)cn4)CC3)CC2)C(C)(C)C)cc1 [I-403] | > 90% | 100 to 500 nM | > 90% | 100 to 500 nM | –
